Consider 8 compounds from patent US20200121812A1 (Teva Pharmaceuticals International GmbH, priority 2015, published 2020).

In series [1] the test system is striatal dopamine. Particulars: cited from earlier work; for increase and prolongation of the output of striatal dopamine: WO2004/056724 and WO2007/093450.
For series [2], the system named is Parkinson models. Particulars: cited from earlier work.
For series [3], the system named is 6-OHDA lesioned rats. Particulars: cited from earlier work; for effectiveness on motor performance compared to L-DOPA: as disclosed in WO2014/122184A1.
In series [4] the test system is dopamine in the striatum. Nature of the series: Microdialysis in Sprague-Dawley rats. The class given is in vivo.
The conditions of series [5]: cited from earlier work.
For series [6] the following is noted: cited from earlier work. The source holds these as a separate data set.
For series [7], the system named is striatum (extracellular L-DOPA, DA and metabolites). Nature of the series: Microdialysis in Wistar Rats (striatal dialysate levels after COMTi pretreatment). The class given is in vivo. Particulars: COMTi 30 mg/kg p.o. 2 hours before SD-1077/Carbidopa 50/25 mg/kg p.o.; FIG. 4.
Series [8] deals with advanced PD patients with motor fluctuations. Nature of the series: Clinical trial of opicapone add on to deuterated levodopa/carbidopa. It counts as in vivo, human. Particulars: add on opicapone 20 mg once daily, 12 weeks; expected.
The mark [9] stands for this setting: plus carbidopa, compared to conventional levodopa plus carbidopa.
Setting [10] is: opicapone before levodopa (sequential dosing) compared to concomitant administration, US2014/0045900A1.

For `[2H]C([2H])(c1ccc(O)c(O)c1)[C@]([2H])(N)C(=O)O` [α,β,β-D3-L-DOPA, L-2-Amino-2,3,3-trideutero-3-(3,4-dihydroxyphenyl) propionic acid], the “increase and prolongation of the output of striatal dopamine” value in series [1] is “significantly more than L-DOPA”. The “striatal dopamine levels compared to L-DOPA” value in series [1] (in vivo) is “higher longer-lasting”. Also, the “equi-effective dose compared to L-DOPA” value in series [2] (in vivo) is given as “about 60%”. Moreover, the “motor activity compared to L-DOPA” value in series [2] (several Parkinson models, Malmlof et al.) is reported as “improved”. Also, the “effectiveness on motor performance compared to L-DOPA” value (“effectiveness … compared to L-DOPA” below) in series [3] is given as “as effective as L-DOPA at lower doses”.
As to `[2H]C([2H])(c1ccc(O)c(O)c1)[C@]([2H])(N)C(=O)O` [Deulevodopa], in series [4] (setting [9]), the central bioavailability result is on record as “increased” and the “half life of dopamine” value was “about doubled”.
For the compound “L-2-amino-2,3,3*-trideutero-3-(3,4-dihydroxyphenyl) propionic acid [Composition 1]”, the “effectiveness … compared to L-DOPA” value in series [3] was “as effective as L-DOPA at lower doses”. Besides, the “observed dyskinesia side effects relative to levodopa” value in series [3] (rat model of Parkinson's disease, at equivalent motor effect, WO2014/122184A1) was 50%. Further, the “dose yielding equivalent motor effect to levodopa, as % of the levodopa dose” value in series [3] (rat model of Parkinson's disease, WO2014/122184A1) was 35%.
As for `[2H]C([2H])(c1ccc(O)c(O)c1)[C@]([2H])(N)C(=O)O` [d3-L-DOPA], the “bioavailability of d3-dopamine in the striatum” value in series [4] (50 mg/kg ip, rats, compared to conventional L-DOPA (50 mg/kg ip), FIG. 1) was “significantly increased”.
On to `Cc1ccc(C(=O)c2cc(O)c(O)c([N+](=O)[O-])c2)cc1` [tolcapone], for which the hepatotoxicity entry in series [5] (after market launch) is listed as “several cases of hepatotoxicity”. The “crossing of the BBB” value in series [5] (in vivo) is recorded as “crosses the BBB”.
For `[2H][C@@H](c1ccc(O)c(O)c1)[C@]([2H])(N)C(=O)O` [α,β-D2-L-DOPA, S/S-2-amino-2,3-dideutero-3-(3,4-dihydroxyphenyl) propionic acid], the “increase and prolongation of the output of striatal dopamine” value in series [1] is reported as “significantly more than L-DOPA”. In addition, the striatal dopamine concentrations entry in series [1] (compared with L-DOPA and α,β,β-D3-L-DOPA) was “highest”. In addition, in series [3], the “effectiveness … compared to L-DOPA” value is on record as “as effective as L-DOPA at lower doses”.
As for `N[C@@H](Cc1ccc(O)c(O)c1)C(=O)O` [levodopa], the half life result in series [6] (in vivo) was “about 1.5 hours”. The “share of an oral dose that reaches the brain” value in series [6] (oral) is 1%. Further, in series [4] (plus carbidopa), the “dopamine in the extracellular space in the striatal brain tissue” value is given as “increase”.
Regarding `Cc1c(Cl)c(C)[n+]([O-])c(Cl)c1-c1noc(-c2cc(O)c(O)c([N+](=O)[O-])c2)n1` [opicapone, 2,5-dichloro-3-[5-(3,4-dihydroxy-5-nitrophenyl]-1,2,4-oxadiazol-3-yl)-4,6-dimethylpyridine 1-oxide], the “extracellular striatal levels of deuterated L-DOPA (SD-1077)” value in series [7] is reported as “more effective than entacapone”. Also, in series [8], the “increase of ON time without dyskinesia compared to placebo” value is on record as “about 40 min”. In series [5] (Parkinson's patients), the levodopa exposure entry is “increase levodopa exposure in a dose-dependent manner” and the motor outcomes is “improve”. Also, the “food effect on rate and extent of absorption” value in series [5] (US2014/0045900A1) is on record as “marked food effect”. For the same compound, in series [5] (setting [10]), the “levodopa Cmax” value is on record as “decrease” and the levodopa systemic exposure entry is “increase”.
